ChEMBL document CHEMBL5038644 (J Med Chem, 2022)
Activity calls are given as the source filed them. The calls are words filed in the database; no cut-off is given here. Bridge positions count the residues as written; N and C are the ends. Square brackets hold non-standard residues; d marks the D form. Peptide text beside a SMILES is read from it. AllylGly = C=CC[C@H](N)C(=O)O; Nle = CCCC[C@H](N)C(=O)O; Ava = NCCCCC(=O)O

Legend:
Apelin receptor [1] = biological target: T1, Apelin receptor (Homo sapiens, UniProt P35414); assay: Displacement of [125I]-[Nle75,Tyr77][Pyr1]-Ape13 from YFP-tagged human APJ expressed in HEK293 cell membranes assessed as inhibition constant incubated for 1 hr by scintillation counting method
T1 sequence (P35414 whole entry): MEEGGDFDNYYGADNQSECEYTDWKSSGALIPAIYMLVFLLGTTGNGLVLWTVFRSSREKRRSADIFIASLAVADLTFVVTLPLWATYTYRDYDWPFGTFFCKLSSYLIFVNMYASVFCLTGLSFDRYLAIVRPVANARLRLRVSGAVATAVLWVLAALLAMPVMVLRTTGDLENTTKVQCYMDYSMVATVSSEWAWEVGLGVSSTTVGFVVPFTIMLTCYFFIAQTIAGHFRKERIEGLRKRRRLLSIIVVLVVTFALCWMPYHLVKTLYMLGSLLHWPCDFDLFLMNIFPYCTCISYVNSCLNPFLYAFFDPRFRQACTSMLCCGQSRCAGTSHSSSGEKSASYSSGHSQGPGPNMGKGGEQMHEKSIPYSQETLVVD

Rattus norvegicus [2] = assay: Cardioprotective activity in Sprague-Dawley rat assessed as effect on left ventricular fractional shortening at 2 micromol/kg, sc after 6 hrs by echocardiography relative to control; format: functional; details: dose 2 µmol/kg
Rattus norvegicus [3] = assay: Cardioprotective activity in Sprague-Dawley rat assessed as effect on left ventricular fractional shortening at 2 micromol/kg, sc after 3 hrs by echocardiography relative to control; format: functional; details: dose 2 µmol/kg
Rattus norvegicus [4] = assay: Cardioprotective activity in Sprague-Dawley rat assessed as effect on cardiac output in sprague-dawley rat at 0.2 micromol/kg, sc after 3 hrs by echocardiography; format: functional, organism-based; details: dose 0.2 µmol/kg
Rattus norvegicus [5] = assay: Cardioprotective activity in Sprague-Dawley rat assessed as effect on left ventricular fractional shortening at 0.2 micromol/kg, sc after 3 hrs by echocardiography; format: functional, organism-based; details: dose 0.2 µmol/kg
Rattus norvegicus [6] = assay: Cardioprotective activity in Sprague-Dawley rat assessed as effect on cardiac output in sprague-dawley rat at 2 micromol/kg, sc after 6 hrs by echocardiography relative to control; format: functional; details: dose 2 µmol/kg
Rattus norvegicus [7] = assay: Cardioprotective activity in Sprague-Dawley rat assessed as effect on cardiac output in sprague-dawley rat at 2 micromol/kg, sc after 3 hrs by echocardiography relative to control; format: functional; details: dose 2 µmol/kg
Rattus norvegicus [8] = assay: Hypotensive effect in Sprague-Dawley rat assessed as decrease in blood pressure at 19.6 to 65 nmol/kg, iv relative to control; format: functional; details: dose 19.6-65 nmol/kg
[9] = biological target: T2, Apelin receptor (Homo sapiens) (UniProt P35414); assay: Agonist activity at human APJ expressed in HEK293 cells assessed as maximal efficacy for dissociation of G alphai1 from the G beta gamma subunit by BRET-based G protein dissociation assay relative to control; format: functional, cell-based; details: filed as agonist
T2 sequence (whole entry): T1 sequence (P35414 whole entry)

[10] = biological target: T2, Apelin receptor (Homo sapiens); assay: Agonist activity at human APJ expressed in HEK293 cell membrane assessed as maximal efficacy for recruitment of PDZ-RhoGEF Galphai1 to cell membrane by BRET-based G protein dissociation assay relative to control; format: functional; details: filed as agonist
[11] = biological target: T2, Apelin receptor (Homo sapiens); assay: Agonist activity at human APJ expressed in HEK293 cell membrane assessed as maximal efficacy for recruitment of beta-arrestin2 to receptor by BRET-based beta-arrestin2 assay relative to control; format: functional; details: filed as agonist
[12] = Stability in Sprague-Dawley rat plasma assessed as half life measured upto 24 hrs by UPLC-MS analysis; format: ADME, cell-free
[13] = Stability in Sprague-Dawley rat plasma at 3 mg/kg, iv upto 2 hrs by LC/MS-MS analysis; format: ADME, organism-based; details: in vivo
[14] = AUC in Sprague-Dawley rat plasma at 3 mg/kg, iv by LC/MS-MS analysis; format: ADME, organism-based; set-up: dose 3 mg/kg; details: in vivo
Apelin receptor [15] = biological target: T1, Apelin receptor; assay: Agonist activity at human APJ expressed in HEK293 cell membrane assessed as recruitment of PDZ-RhoGEF Galpha12 to cell membrane by BRET-based G protein dissociation assay; format: functional

Row | Ki (Apelin receptor [1]) [µM] | Emax [9] [%] | Emax [10] [%] | Emax [11] [%] | SMILES | also measured
1 | > 10 |  |  |  | CCCC[C@H](NC(=O)[C@@H]1CCCN1C(=O)CCCCNC(=O)[C@@H]1C/C=C\C[C@H](N)C(=O)N[C@@H](CCCNC(=N)N)C(=O)N[C@@H](CC(C)C)C(=O)N[C@@H](CO)C(=O)N1)C(=O)O (H-[AllylGly]RLS[AllylGly][Ava]P[Nle]-OH; staple (Z) 1-5) | 
2 |  | 105 | 40 | 55 | CC(C)C[C@@H]1NC(=O)[C@H](CCCNC(=N)N)NC(=O)[C@@H](N)C/C=C\C[C@@H](C(=O)N[C@@H](CCCCN)C(=O)NCC(=O)N2CCC[C@H]2C(=O)N[C@H](Cc2ccc3ccccc3c2)C(=O)O)NC(=O)[C@H](CO)NC1=O | Activity (Rattus norvegicus [2]): 17%; Activity (Rattus norvegicus [3]): 22%; Activity (Rattus norvegicus [4]): Active; Activity (Rattus norvegicus [5]): Active; Activity (Rattus norvegicus [6]): 16%; Activity (Rattus norvegicus [7]): 22%; Activity (Rattus norvegicus [8]): inactive; half-life [12]: > 24 h; Stability [13]: Stable; AUC [14]: 8.8 mg·min/mL
3 |  | 102 | 100 | 75 | CCCC[C@H](NC(=O)[C@@H]1CCCN1C(=O)CNC(=O)[C@H](CCCCN)NC(=O)[C@@H]1CCCC[C@H](NC(=O)[C@H](CCCNC(=N)N)NC(=O)[C@@H]2CCC(=O)N2)C(=O)N[C@@H](CCCNC(=N)N)C(=O)N[C@@H](CC(C)C)C(=O)N[C@@H](CO)C(=O)N1)C(=O)N1CCC[C@H]1C(=O)N[C@@H](Cc1ccccc1)C(=O)O | EC50 (Apelin receptor [15]): 0.063 µM
4 | > 10 |  |  |  | CC(C)C[C@@H]1NC(=O)[C@H](CCCNC(=N)N)NC(=O)[C@@H](N)C/C=C\C[C@@H](C(=O)N[C@@H](CCCCN)C(=O)NCC(=O)N2CCC[C@H]2C(=O)N[C@@H](C)C(=O)O)NC(=O)[C@H](CO)NC1=O (H-[AllylGly]RLS[AllylGly]KGPA-OH; staple (Z) 1-5) | 
5 | > 10 |  |  |  | CC(C)C[C@@H]1NC(=O)[C@H](CCCNC(=N)N)NC(=O)[C@@H](N)C/C=C\C[C@@H](C(=O)N[C@@H](CCCCN)C(=O)O)NC(=O)[C@H](CO)NC1=O (H-[AllylGly]RLS[AllylGly]K-OH; staple (Z) 1-5) | 
6 |  | 100 | 95 | 86 | CCCC[C@H](NC(=O)[C@@H]1CCCN1C(=O)CNC(=O)[C@H](CCCCN)NC(=O)[C@@H]1CCNC/C=C/C[C@H](NC(=O)[C@H](CCCNC(=N)N)NC(=O)[C@@H]2CCC(=O)N2)C(=O)N[C@@H](CCCNC(=N)N)C(=O)N[C@@H](CC(C)C)C(=O)N[C@@H](CO)C(=O)N1)C(=O)N1CCC[C@H]1C(=O)N[C@@H](Cc1ccccc1)C(=O)O | 
7 |  | 101 | 98 | 98 | CCCC[C@H](NC(=O)[C@@H]1CCCN1C(=O)CNC(=O)[C@H](CCCCN)NC(=O)[C@@H]1C/C=C\C[C@H](NC(=O)[C@H](CCCNC(=N)N)NC(=O)[C@@H]2CCC(=O)N2)C(=O)N[C@@H](CCCNC(=N)N)C(=O)N[C@@H](CC(C)C)C(=O)N[C@@H](CO)C(=O)N1)C(=O)N1CCC[C@H]1C(=O)N[C@@H](Cc1ccccc1)C(=O)O | 
8 |  | 99 | 59 | 69 | CCCC[C@H](NC(=O)[C@@H]1CCCN1C(=O)CNC(=O)[C@H](CCCCN)NC(=O)[C@@H]1C/C=C\C[C@H](N)C(=O)N[C@@H](CCCNC(=N)N)C(=O)N[C@@H](CC(C)C)C(=O)N[C@@H](CO)C(=O)N1)C(=O)O | Activity (Rattus norvegicus [8]): -13 mmHg
9 | > 10 |  |  |  | CCCC[C@H](NC(=O)[C@@H]1CCCN1C(=O)CNC(=O)[C@@H]1C/C=C\C[C@H](N)C(=O)N[C@@H](CCCNC(=N)N)C(=O)N[C@@H](CC(C)C)C(=O)N[C@@H](CO)C(=O)N1)C(=O)O (H-[AllylGly]RLS[AllylGly]GP[Nle]-OH; staple (Z) 1-5) | 

Row | SMILES | Ki (Apelin receptor [1]) [µM] | Emax [9] [%] | Emax [10] [%] | Emax [11] [%] | also measured
10 | CCCC[C@H](NC(=O)[C@@H]1CCCN1C(=O)CNC(=O)[C@H](CCCCN)NC(=O)[C@@H]1CC(=O)NCCCC[C@H](NC(=O)[C@H](CCCNC(=N)N)NC(=O)[C@@H]2CCC(=O)N2)C(=O)N[C@@H](CCCNC(=N)N)C(=O)N[C@@H](CC(C)C)C(=O)N[C@@H](CO)C(=O)N1)C(=O)N1CCC[C@H]1C(=O)N[C@@H](Cc1ccccc1)C(=O)O (HELM PEPTIDE1{[Glp].R.K.R.L.S.D.K.G.P.[Nle].P.F}$PEPTIDE1,PEPTIDE1,3:R3-7:R3$$$V2.0) | 0.039 |  |  |  | 
